Test results reported in US20230241178A1, “LONG ACTING GLP-1/GIP DUAL AGONISTS” (SUN PHARMACEUTICAL INDUSTRIES LIMITED, priority 2020, published 2023).
Marks after values point to notes of the source that are not given here. Numbered stars: 1 amine (or outer) side, 2 acyl side, 3 side chain; on linkers, the order of the positions; unused ones are H or OH. Square brackets hold non-standard residues; d marks the D form. Primed or numbered codes have the meaning given here. Ends that are not written are not given here. dSer(OMe) = COC[C@@H](N[*:1])C(=O)[*:2]; Moiety B″ = not defined here; Aib = CC(C)(N)C(=O)O

Experiments:
[1] = test system: type 2 diabetic mouse (db/db) model; assay: Effect on blood glucose, food intake and body weight, single s.c. dose 10 nM/kg, db/db mice (Tables 8, 9); assay type: in vivo; conditions: 10 nM/kg/s.c/single dose
Description: This study was performed in a type 2 diabetic mouse (db/db) model. […] Baseline blood glucose was measured from all the animals. All the animals were administered with test items subcutaneously. Blood glucose was measured at 4 hr, 12 hr, 24 hr, 48 hr, 72 hr and 96 hr post treatment. Delta blood glucose (mM) was calculated. Body weight changes and cumulative food consumption was measured at 96 hr post treatment. Similarly the effect of Compounds 11-15 on blood glucose, food intake and body weight was studied in a separate study except for Compound 13. The results are shown in Table 8 (effect on blood glucose) and Table 9 (effect on body weight and food consumption).

[2] = test system: type 2 diabetic mouse (db/db) model; assay: Reduction of HbA1c in db/db type 2 diabetic mice after chronic treatment (HbA1c, insulin, triglycerides, food consumption, body weight); assay type: in vivo; conditions: for Cumulative Food Consumption Day 0-28 / Insulin / Triglycerides / Δ% HbA1c vs. DC / Body Weight (%) Day 28 vs. Baseline: db/db mice
Description: This study was performed in a type 2 diabetic mouse (db/db) model. […] All the treatments were injected subcutaneously every third day for 10 doses (q3d*10). % HbA1c, Insulin, Triglycerides levels were measured on Day 0, day 14 and day 28. Cumulative food intake from day 0-28 and % Change in body weight compared to day 0 was calculated on day 28.

[3] = test system: type 2 diabetic mouse (db/db) model; assay: Reduction in blood glucose and effect on body weight and food intake, single dose, db/db mice (Tables 4, 5); assay type: in vivo; conditions: for Delta Blood Glucose (mM), Mean: @ 3 nM s.c.
Description: The effect of Compounds of present invention on blood glucose was studied on mice. This study was performed in a type 2 diabetic mouse (db/db) model. […] Baseline blood glucose was measured from all the animals. All animals were administered with its respective test item subcutaneously. […] Delta blood glucose (mM) was calculated. Similarly body weight changes and cumulative food consumption was measured at 96 hr post treatment.

[4] = test system: type 2 diabetic mouse (db/db) model; assay: Effect of Compound 2 and 7 on blood glucose, body weight and food consumption in mice, up to 72 hr (Tables 6, 7); assay type: in vivo; conditions: 90 nM/kg; mice, n = 8
Description: Similarly body weight changes and cumulative food consumption was measured at 72 hr post treatment.

GIP-receptor (GIPR) = biological target: T1, GIP-receptor (GIPR) (UniProt P48546 22-466, limits assumed); assay: cell-based or functional assay
T1 sequence (looked up): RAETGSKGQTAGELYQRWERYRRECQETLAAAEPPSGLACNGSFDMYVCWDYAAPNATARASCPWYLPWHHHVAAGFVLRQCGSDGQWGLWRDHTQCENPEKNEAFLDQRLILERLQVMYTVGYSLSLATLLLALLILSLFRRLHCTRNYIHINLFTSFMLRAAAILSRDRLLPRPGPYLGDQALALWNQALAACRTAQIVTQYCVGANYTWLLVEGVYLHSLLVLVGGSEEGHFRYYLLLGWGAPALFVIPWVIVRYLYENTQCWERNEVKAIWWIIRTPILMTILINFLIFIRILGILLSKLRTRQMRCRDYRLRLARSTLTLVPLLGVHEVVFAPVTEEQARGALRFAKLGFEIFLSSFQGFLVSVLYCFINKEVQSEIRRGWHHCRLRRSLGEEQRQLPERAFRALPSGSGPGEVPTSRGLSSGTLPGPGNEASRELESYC

[5] = biological target: glucagon-like peptide-1 receptor (GLP-1R) (UniProt P43220 24-463, limits assumed); assay: cell-based or functional assay
[6] = 59 nM/kg s.c., separate study n = 5

## Compound 16: Seq ID: 11 polypeptide, Lys acylated with Moiety D (YXEGTFTSDYSIXLDKIAQKAFVQWLIAGGPSSGAPPPSR; (2)..(2) Xaa = Aib (2-Aminoisobutyric acid); (13)..(13) Xaa = Aib (2-Aminoisobutyric acid); (20)..(20) Side chain amino (Epsilon amino) group of Lys is substituted)
[1]; 0 hr (baseline)
  Delta Blood Glucose (mM), Mean: 0.0 mM
[1]; 4 hr post treatment
  Delta Blood Glucose (mM), Mean: −14.4*** mM
[1]; 12 hr post treatment
  Delta Blood Glucose (mM), Mean: −12.1*** mM
[1]; 24 hr post treatment
  Delta Blood Glucose (mM), Mean: −10.8*** mM
[1]; 48 hr post treatment
  Delta Blood Glucose (mM), Mean: −4.9** mM
[1]; 72 hr post treatment
  Delta Blood Glucose (mM), Mean: 0.8 mM
[1]; 96 hr post treatment
  Delta Blood Glucose (mM), Mean: 0.7* mM

## Compound 12: Seq ID: 11 polypeptide, Lys acylated with Moiety C (YXEGTFTSDYSIXLDKIAQKAFVQWLIAGGPSSGAPPPSR; (2)..(2) Xaa = Aib (2-Aminoisobutyric acid); (13)..(13) Xaa = Aib (2-Aminoisobutyric acid); (20)..(20) Side chain amino (Epsilon amino) group of Lys is substituted)
[1]; 0 hr (baseline)
  Delta Blood Glucose (mM), Mean: 0.0 mM
[1]
  Body Wt. Change (%) 96 hr. vs. Baseline, Mean: −3.1** %
  Cumulative food Intake (g) 96 hr. vs. Baseline, Mean: 15.2*** g
[1]; 4 hr post treatment
  Delta Blood Glucose (mM), Mean: −14.2*** mM
[1]; 12 hr post treatment
  Delta Blood Glucose (mM), Mean: −13.0*** mM
[1]; 24 hr post treatment
  Delta Blood Glucose (mM), Mean: −8.0*** mM
[1]; 48 hr post treatment
  Delta Blood Glucose (mM), Mean: −5.5* mM
[1]; 72 hr post treatment
  Delta Blood Glucose (mM), Mean: -2.9 mM
[1]; 96 hr post treatment
  Delta Blood Glucose (mM), Mean: 1.7 mM

## Tirzepatide [reference compound]
[2]; 180 nM/kg dose
  improvement in HbA1c reduction from day 14 to day 28 (in words): minimal improvement in HbA1c reduction
[2]; 90 nM/kg s.c. q3d*10
  Cumulative Food Consumption Day 0-28: 119.1
[2]; 180 nM/kg s.c. q3d*10
  Cumulative Food Consumption Day 0-28: 90.1
[2]; Day 14, 90 nM/kg s.c. q3d*10
  Insulin: 65.23 ng/mL
  Triglycerides: 168.7 mg/dL
  Δ% HbA1c vs. DC: −2.63*** %
[2]; Day 14, 180 nM/kg s.c. q3d*10
  Insulin: 71.77 ng/mL
  Triglycerides: 143.4 mg/dL
  Δ% HbA1c vs. DC: −3.50*** %
[2]; Day 28, 90 nM/kg s.c. q3d*10
  Body Weight (%) Day 28 vs. Baseline: −0.9%
  Insulin: 52.32 ng/mL
  Triglycerides: 167.4 mg/dL
  Δ% HbA1c vs. DC: −3.43*** %
[2]; Day 28, 180 nM/kg s.c. q3d*10
  Body Weight (%) Day 28 vs. Baseline: −6.8%
  Insulin: 60.19 ng/mL
  Triglycerides: 141.3 mg/dL
  Δ% HbA1c vs. DC: −3.74*** %
[3]; 10 nM/kg s.c., n = 6 study
  Cumulative Food Intake (g) 0-96 hr, Mean: 13.3*** g
  Body Weight Change (%) 96 hr., Mean: −3.4*** %
[3]; [6]
  Cumulative Food Intake (g) 0-96 hr, Mean: 15.9 g
  Body Weight Change (%) 96 hr., Mean: −2.8** %
[4]
  % Body wt. change 72 hr. vs. 0 hr., Mean: −6.7*** %
  Cumulative Food Consumption (0-72 hr) (g), Mean: 8.1** g

## Compound 11: Seq ID: 11 polypeptide, Lys acylated with Moiety B (YXEGTFTSDYSIXLDKIAQKAFVQWLIAGGPSSGAPPPSR; (2)..(2) Xaa = Aib (2-Aminoisobutyric acid); (13)..(13) Xaa = Aib (2-Aminoisobutyric acid); (20)..(20) Side chain amino (Epsilon amino) group of Lys is substituted)
[1]; 0 hr (baseline)
  Delta Blood Glucose (mM), Mean: 0.0 mM
[1]
  Body Wt. Change (%) 96 hr. vs. Baseline, Mean: −4.5*** %
  Cumulative food Intake (g) 96 hr. vs. Baseline, Mean: 14.1*** g
  blood glucose reduction post treatment (in words): statistically significant blood glucose reduction
[1]; 4 hr post treatment
  Delta Blood Glucose (mM), Mean: −10.5*** mM
[1]; 12 hr post treatment
  Delta Blood Glucose (mM), Mean: −11.2*** mM
[1]; 24 hr post treatment
  Delta Blood Glucose (mM), Mean: −14.6*** mM
[1]; 48 hr post treatment
  Delta Blood Glucose (mM), Mean: −6.4*** mM
[1]; 72 hr post treatment
  Delta Blood Glucose (mM), Mean: −2.9*** mM
[1]; 96 hr post treatment
  Delta Blood Glucose (mM), Mean: 1.1 mM

## Compound 3: Seq ID: 06 polypeptide, Lys acylated with Moiety B (Y[dSer(OMe)]EGTFTSDYSI[Aib]LDKIAQK(Moiety B″)AFVQWLIAGGPSSGAPPPS-NH2; reading uncertain)
[3]; 3 nM/kg s.c., n = 6 study
  Cumulative Food Intake (g) 0-96 hr, Mean: 21.9 g
  Body Weight Change (%) 96 hr., Mean: −2.5*** %
[3]; 4 hr post treatment, n = 6 study
  Delta Blood Glucose (mM), Mean: -9.2 mM
[3]; 12 hr post treatment, n = 6 study
  Delta Blood Glucose (mM), Mean: -2.9 mM
[3]; 24 hr post treatment, n = 6 study
  Delta Blood Glucose (mM), Mean: 1.6 mM
[3]; 48 hr post treatment, n = 6 study
  Delta Blood Glucose (mM), Mean: 0.7 mM
[3]; 72 hr post treatment, n = 6 study
  Delta Blood Glucose (mM), Mean: 2 mM
[3]; 96 hr post treatment, n = 6 study
  Delta Blood Glucose (mM), Mean: 2.1 mM

B1: Compound 2 (peptide)
peptide: YXEGTFTSDYSIXLDKIAQKAFVQWLIAGGPSSGAPPPS
modifications: Aib at positions 2 and 13; side chain epsilon-amino group of Lys 20 acylated with Moiety B (U-W-Y-Z with W = -C(O)-C(CH3)2-NH-, i.e. 2-[2-(2-aminoethoxy)ethoxy]acetyl-Aib-gammaGlu-C20 diacid); C-terminal primary amide (Ser-NH2)
GIP-receptor (GIPR)
  Tirzepatide/Compound 2 ratio of half-maximal effective concentrations, cellular cAMP assay: 0.81 ratio
[5]
  Tirzepatide/Compound 2 ratio of half-maximal effective concentrations, cellular cAMP assay: 1.68 ratio
